Measurements as given in US20230085307A1, “PYRIDAZINONE COMPOUND AND HERBICIDE” (NISSAN CHEMICAL CORPORATION, priority 2019, published 2023).

What was measured:
late watergrass = assay: Test Example 2: herbicidal activity, application during weed generation under submerged conditions (Table 17, symbol A); assay type: in vivo, late watergrass (Echinochloa oryzicola); conditions: AAH 320 g/ha; application during weed generation, submerged conditions
Method in brief: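 Mixed weed seedlings in alluvial soil under a 4 cm water layer, greenhouse-grown at 25–30° C. Compound given as a diluted emulsion into the floodwater at the 1–2 leaf stage; response graded after three weeks.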

windgrass [1] = assay: Test Example 4: herbicidal effect by soil treatment (Table 19, symbol L); assay type: in vivo, windgrass (Apera spica-venti); conditions: amount of applied herbicide 320 g/ha
Method in brief: (§1)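 In this soil treatment, the formulated compound reached the seeds only through the soil: seeds were buried about 1.5 cm deep in sterilized diluvial soil, then the diluted emulsion was sprayed over the surface. After three weeks at 25° C. to 30° C. in a greenhouse, effects were graded on criteria from an earlier test.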

lambsquarters [2] = assay: Test Example 4: herbicidal effect by soil treatment (Table 19, symbol O); assay type: in vivo, lambsquarters (Chenopodium album); conditions: amount of applied herbicide 320 g/ha
Method in brief: as §1

chickweed = assay: Test Example 4: herbicidal effect by soil treatment (Table 19, symbol P); assay type: in vivo, common chickweed (Stellaria media); conditions: amount of applied herbicide 320 g/ha
Method in brief: as §1

oval-leafed pondweed = assay: Test Example 1: herbicidal activity, application before weed generation under submerged conditions (Table 16, symbol C); assay type: in vivo, oval-leafed pondweed (Monochoria vaginalis); conditions: amount of applied herbicide 320 g/ha
Method in brief: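 Alluvial soil was flooded to 4 cm depth, weed seeds were sown mixed and 2.5-leaf rice seedlings were transplanted. On sowing day, the compound's emulsion, diluted in water to a set dose, was applied to the water surface. Plants grew at 25–30 °C and were scored 0–5 after three weeks.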

windgrass [3] = assay: Test Example 5: herbicidal effect by foliage application, plastic box (Table 20, symbol L); assay type: in vivo, windgrass (Apera spica-venti); conditions: foliage application, 320 g/ha, three weeks after application
Method in brief: (§2)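 Plants were sown into sterilized diluvial soil under about 1.5 cm cover and kept in a greenhouse at 25° C. to 30° C. Fourteen days on, foliage received an even spray of the diluted emulsion. Herbicidal or crop effect was judged three weeks afterwards.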

barnyard grass = assay: Test Example 3: herbicidal effect by foliage application, Wagner pot (Table 18, symbol H); assay type: in vivo, barnyard grass (Echinochloa crus-galli); conditions: amount of applied herbicide 320 g/ha
Method in brief: (§3)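 Plants were sown in alluvial soil held under 0.1–0.5 cm standing water and grown 14 days in a greenhouse at 25–30 °C. An emulsifiable formulation, water-diluted to the set dose, was then sprayed onto the foliage, and effects were scored three weeks later using previously defined criteria.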

persian speedwell [4] = assay: Test Example 5: herbicidal effect by foliage application, plastic box (Table 20, symbol R); assay type: in vivo, Persian speedwell (Veronica persica); conditions: foliage application, 320 g/ha, three weeks after application
Method in brief: as §2

lambsquarters [5] = assay: Test Example 5: herbicidal effect by foliage application, plastic box (Table 20, symbol O); assay type: in vivo, lambsquarters (Chenopodium album); conditions: foliage application, 320 g/ha, three weeks after application
Method in brief: as §2

Chinese sprangletop = assay: Test Example 3: herbicidal effect by foliage application, Wagner pot (Table 18, symbol D); assay type: in vivo, chinese sprangletop (Leptochloa chinensis); conditions: amount of applied herbicide 320 g/ha
Method in brief: as §3

velvetleaf [6] = assay: Test Example 4: herbicidal effect by soil treatment (Table 19, symbol M); assay type: in vivo, velvetleaf (Abutilon theophrasti); conditions: amount of applied herbicide 320 g/ha
Method in brief: as §1

persian speedwell [7] = assay: Test Example 4: herbicidal effect by soil treatment (Table 19, symbol R); assay type: in vivo, Persian speedwell (Veronica persica); conditions: amount of applied herbicide 320 g/ha
Method in brief: as §1

southern crabgrass = assay: Test Example 5: herbicidal effect by foliage application, plastic box (Table 20, symbol F); assay type: in vivo, southern crabgrass (Digitaria ciliaris); conditions: foliage application, 320 g/ha, three weeks after application
Method in brief: as §2

green foxtail = assay: Test Example 4: herbicidal effect by soil treatment (Table 19, symbol G); assay type: in vivo, green foxtail (Setaria viridis); conditions: amount of applied herbicide 320 g/ha
Method in brief: as §1

rice flat sedge = assay: Test Example 3: herbicidal effect by foliage application, Wagner pot (Table 18, symbol E); assay type: in vivo, rice flat sedge (Cyperus iria); conditions: amount of applied herbicide 320 g/ha
Method in brief: as §3

Italian ryegrass = assay: Test Example 5: herbicidal effect by foliage application, plastic box (Table 20, symbol K); assay type: in vivo, Italian ryegrass (Lolium multiflorum); conditions: foliage application, 320 g/ha, three weeks after application
Method in brief: as §2

velvetleaf [8] = assay: Test Example 5: herbicidal effect by foliage application, plastic box (Table 20, symbol M); assay type: in vivo, velvetleaf (Abutilon theophrasti); conditions: foliage application, 320 g/ha, three weeks after application
Method in brief: as §2

COc1ccccc1-c1sc2cc(F)ccc2c1-c1c(O)c(C)nn(C)c1=O [3-003]
herbicidal effect rating, A: late watergrass (late watergrass): 2 (Herbicidal rate of 20% or more and less than 40%) | herbicidal effect, L: windgrass (windgrass [1]): 3 (Herbicidal rate of 40% or more and less than 70%) | herbicidal effect, O: lambsquarters (lambsquarters [2]): 4 (Herbicidal rate of 70% or more and less than 90%) | herbicidal effect, P: chickweed (chickweed): 4 (Herbicidal rate of 70% or more and less than 90%) | Herbicidal effect, C: oval-leafed pondweed (oval-leafed pondweed): 5 (Herbicidal rate of 90% or more (almost completely withered)) | L: windgrass, herbicidal effect grade (windgrass [3]): 5 (Herbicidal rate of 90% or more (almost completely withered)) | herbicidal effect on H: barnyard grass (barnyard grass): 5 (Herbicidal rate of 90% or more (almost completely withered)) | R: persian speedwell, herbicidal effect grade (persian speedwell [4]): 5 (Herbicidal rate of 90% or more (almost completely withered)) | O: lambsquarters, herbicidal effect grade (lambsquarters [5]): 4 (Herbicidal rate of 70% or more and less than 90%) | herbicidal effect on D: Chinese sprangletop (Chinese sprangletop): 3 (Herbicidal rate of 40% or more and less than 70%) | herbicidal effect, M: velvetleaf (velvetleaf [6]): 3 (Herbicidal rate of 40% or more and less than 70%) | herbicidal effect, R: persian speedwell (persian speedwell [7]): 4 (Herbicidal rate of 70% or more and less than 90%) | F: southern crabgrass, herbicidal effect grade (southern crabgrass): 5 (Herbicidal rate of 90% or more (almost completely withered)) | herbicidal effect, G: green foxtail (green foxtail): 5 (Herbicidal rate of 90% or more (almost completely withered)) | herbicidal effect on E: rice flat sedge (rice flat sedge): 5 (Herbicidal rate of 90% or more (almost completely withered)) | K: Italian ryegrass, herbicidal effect grade (Italian ryegrass): 5 (Herbicidal rate of 90% or more (almost completely withered)) | M: velvetleaf, herbicidal effect grade (velvetleaf [8]): 5 (Herbicidal rate of 90% or more (almost completely withered))

CCOc1ccccc1-c1sc2cc(F)ccc2c1-c1c(O)c(C)nn(C)c1=O [3-006]
herbicidal effect rating, A: late watergrass (late watergrass): 3 (Herbicidal rate of 40% or more and less than 70%) | herbicidal effect, L: windgrass (windgrass [1]): 5 (Herbicidal rate of 90% or more (almost completely withered)) | herbicidal effect, O: lambsquarters (lambsquarters [2]): 5 (Herbicidal rate of 90% or more (almost completely withered)) | herbicidal effect, P: chickweed (chickweed): 5 (Herbicidal rate of 90% or more (almost completely withered)) | Herbicidal effect, C: oval-leafed pondweed (oval-leafed pondweed): 4 (Herbicidal rate of 70% or more and less than 90%) | L: windgrass, herbicidal effect grade (windgrass [3]): 5 (Herbicidal rate of 90% or more (almost completely withered)) | herbicidal effect on H: barnyard grass (barnyard grass): 5 (Herbicidal rate of 90% or more (almost completely withered)) | R: persian speedwell, herbicidal effect grade (persian speedwell [4]): 5 (Herbicidal rate of 90% or more (almost completely withered)) | O: lambsquarters, herbicidal effect grade (lambsquarters [5]): 4 (Herbicidal rate of 70% or more and less than 90%) | herbicidal effect on D: Chinese sprangletop (Chinese sprangletop): 4 (Herbicidal rate of 70% or more and less than 90%) | herbicidal effect, M: velvetleaf (velvetleaf [6]): 4 (Herbicidal rate of 70% or more and less than 90%) | herbicidal effect, R: persian speedwell (persian speedwell [7]): 5 (Herbicidal rate of 90% or more (almost completely withered)) | F: southern crabgrass, herbicidal effect grade (southern crabgrass): 5 (Herbicidal rate of 90% or more (almost completely withered)) | herbicidal effect, G: green foxtail (green foxtail): 5 (Herbicidal rate of 90% or more (almost completely withered)) | herbicidal effect on E: rice flat sedge (rice flat sedge): 5 (Herbicidal rate of 90% or more (almost completely withered)) | K: Italian ryegrass, herbicidal effect grade (Italian ryegrass): 5 (Herbicidal rate of 90% or more (almost completely withered)) | M: velvetleaf, herbicidal effect grade (velvetleaf [8]): 5 (Herbicidal rate of 90% or more (almost completely withered))

CCCC(=O)Oc1c(C)nn(C)c(=O)c1-c1c(-c2ccc(OC)cc2)sc2cc(F)ccc12 [3-008]
herbicidal effect rating, A: late watergrass (late watergrass): 0 (Herbicidal rate of 5% or less (almost no effect)) | herbicidal effect, L: windgrass (windgrass [1]): 0 (Herbicidal rate of 5% or less (almost no effect)) | herbicidal effect, O: lambsquarters (lambsquarters [2]): 5 (Herbicidal rate of 90% or more (almost completely withered)) | herbicidal effect, P: chickweed (chickweed): 5 (Herbicidal rate of 90% or more (almost completely withered)) | Herbicidal effect, C: oval-leafed pondweed (oval-leafed pondweed): 5 (Herbicidal rate of 90% or more (almost completely withered)) | L: windgrass, herbicidal effect grade (windgrass [3]): 3 (Herbicidal rate of 40% or more and less than 70%) | herbicidal effect on H: barnyard grass (barnyard grass): 4 (Herbicidal rate of 70% or more and less than 90%) | R: persian speedwell, herbicidal effect grade (persian speedwell [4]): 5 (Herbicidal rate of 90% or more (almost completely withered)) | O: lambsquarters, herbicidal effect grade (lambsquarters [5]): 5 (Herbicidal rate of 90% or more (almost completely withered)) | herbicidal effect on D: Chinese sprangletop (Chinese sprangletop): 4 (Herbicidal rate of 70% or more and less than 90%) | herbicidal effect, M: velvetleaf (velvetleaf [6]): 0 (Herbicidal rate of 5% or less (almost no effect)) | herbicidal effect, R: persian speedwell (persian speedwell [7]): 5 (Herbicidal rate of 90% or more (almost completely withered)) | F: southern crabgrass, herbicidal effect grade (southern crabgrass): 4 (Herbicidal rate of 70% or more and less than 90%) | herbicidal effect, G: green foxtail (green foxtail): 0 (Herbicidal rate of 5% or less (almost no effect)) | herbicidal effect on E: rice flat sedge (rice flat sedge): 5 (Herbicidal rate of 90% or more (almost completely withered)) | K: Italian ryegrass, herbicidal effect grade (Italian ryegrass): 3 (Herbicidal rate of 40% or more and less than 70%) | M: velvetleaf, herbicidal effect grade (velvetleaf [8]): 5 (Herbicidal rate of 90% or more (almost completely withered))

COc1cc(F)ccc1-c1sc2cc(F)ccc2c1-c1c(O)c(C)nn(C)c1=O [3-009]
herbicidal effect rating, A: late watergrass (late watergrass): 0 (Herbicidal rate of 5% or less (almost no effect)) | herbicidal effect, L: windgrass (windgrass [1]): 5 (Herbicidal rate of 90% or more (almost completely withered)) | herbicidal effect, O: lambsquarters (lambsquarters [2]): 5 (Herbicidal rate of 90% or more (almost completely withered)) | herbicidal effect, P: chickweed (chickweed): 4 (Herbicidal rate of 70% or more and less than 90%) | Herbicidal effect, C: oval-leafed pondweed (oval-leafed pondweed): 1 (Herbicidal rate of 5% or more and less than 20%) | L: windgrass, herbicidal effect grade (windgrass [3]): 5 (Herbicidal rate of 90% or more (almost completely withered)) | herbicidal effect on H: barnyard grass (barnyard grass): 5 (Herbicidal rate of 90% or more (almost completely withered)) | R: persian speedwell, herbicidal effect grade (persian speedwell [4]): 5 (Herbicidal rate of 90% or more (almost completely withered)) | O: lambsquarters, herbicidal effect grade (lambsquarters [5]): 5 (Herbicidal rate of 90% or more (almost completely withered)) | herbicidal effect on D: Chinese sprangletop (Chinese sprangletop): 5 (Herbicidal rate of 90% or more (almost completely withered)) | herbicidal effect, M: velvetleaf (velvetleaf [6]): 3 (Herbicidal rate of 40% or more and less than 70%) | herbicidal effect, R: persian speedwell (persian speedwell [7]): 5 (Herbicidal rate of 90% or more (almost completely withered)) | F: southern crabgrass, herbicidal effect grade (southern crabgrass): 5 (Herbicidal rate of 90% or more (almost completely withered)) | herbicidal effect, G: green foxtail (green foxtail): 4 (Herbicidal rate of 70% or more and less than 90%) | herbicidal effect on E: rice flat sedge (rice flat sedge): 5 (Herbicidal rate of 90% or more (almost completely withered)) | K: Italian ryegrass, herbicidal effect grade (Italian ryegrass): 5 (Herbicidal rate of 90% or more (almost completely withered)) | M: velvetleaf, herbicidal effect grade (velvetleaf [8]): 5 (Herbicidal rate of 90% or more (almost completely withered))
